In experiment [1] the target is human DHFR. Briefly: Inhibition of human DHFR (I50-derived Ki).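 Note: recombinant human DHFR expressed in E. coli and purified by methotrexate affinity chromatography, enzyme activity followed spectrophotometrically.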 It counts as biochemical.
In experiment [2] the target is T1, human DHFR (Homo sapiens, UniProt P00374).
T1 construct: made in house; host or cells: E. coli M15
T1 sequence (P00374 1-187): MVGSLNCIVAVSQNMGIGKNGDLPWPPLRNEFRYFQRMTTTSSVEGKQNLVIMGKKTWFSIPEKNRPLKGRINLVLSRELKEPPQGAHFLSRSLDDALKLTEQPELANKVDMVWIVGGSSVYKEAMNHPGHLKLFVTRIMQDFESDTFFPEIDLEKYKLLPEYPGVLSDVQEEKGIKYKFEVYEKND
Briefly: Inhibition of human DHFR (I50-derived Ki).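 Note: recombinant human DHFR expressed in E. coli and purified by methotrexate affinity chromatography, enzyme activity followed spectrophotometrically.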 It counts as biochemical. As to conditions: human DHFR.

The subject of experiment [3] is wild-type (TM4/8.2) strain of P. falciparum. The experiment is described as follows: microbe, parasite or virus in culture. It counts as cell-based, Plasmodium falciparum. As to conditions: Plasmodium falciparum; wild-type strain TM4/8.2. As for the experimental part:
Mol. Biochem. Parasitol. […] Science, 1976, 193, 673-675]. In vitro antimalarial activity was determined by using [^3H]-hypoxanthine incorporation method [Desjardins, R. E.; Canfield, C. J.; Haynes, J. D.; Chulay, J. D. Quantitative assessment of antimalarial activity in vitro by a semiautomated microdilution technique. Antimicrob Agents Chemother. 1979, 16, 710-718]. The drugs were initially dissolved in DMSO and diluted with the culture media. Aliquots (25 μl) of drug solution of different concentrations was placed in 96-well plate together with 200 μl of 1.5% cell suspension of parasitized erythrocytes containing 1-2% parasitemia. Final concentration of DMSO was 0.1% where there was no effect on the parasite growth. The mixtures were incubated in a 3% CO2 incubator at 37° C. After 24 h of incubation, 25 μl (0.25 μCi) of [^3H]-hypoxanthine were added to each well. The mixtures were further incubated under the same condition for 18-24 h. DNA of parasites was harvested onto glass filter paper (Unifilter, Packard, USA). The filters were dried and liquid scintillation fluid was added for radioactivity measurement in a 6-probe liquid scintillation-counter (Packard, USA).

Experiment [4] deals with T2, A16V.S108T mutant (mut) of DHFR from Plasmodium falciparum (Plasmodium falciparum, UniProt A7UD81, A16V/S108T).
T2 construct: The Dihydrofolate Reductase Domain of Plasmodium falciparum Thymidylate Synthase-Dihydrofolate Reductase; made in house
The experiment is described as follows: biochemical.
Protocol: (§1) For determination of the Ki values of a number of synthesized analogues, the assay reactions were initiated with affinity-purified enzyme (^˜0.005-0.01 U ml^−1), and the initial velocities in the presence of varying concentrations of inhibitors were analysed by non-linear least square fit using Kaleidagraph™ software.

Experiment [5] relates to A16V.S108T mutant (mut) of DHFR from Plasmodium falciparum. The experiment is described as follows: biochemical. As to conditions: resistance factor.
Protocol: as §1
Experiment [6] concerns the target T3, DHFR-TS from Trypanosoma cruzi (Trypanosoma cruzi, UniProt Q27793).
T3 construct: pET 11c with the insertion of the complete ORF of the gene tc-dhfrts; made in house; host or cells: E. coli BL21 (DE3)
Briefly: Inhibition of T. cruzi DHFR-TS (I50-derived Ki).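 For all read-outs here: enzymes were recombinant T. cruzi DHFR-TS and human DHFR, both expressed in E. coli and purified on a methotrexate affinity column, with dihydrofolate and NADPH as substrates.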 The note with it: for Selectivity: human Ki / T. cruzi Ki. It counts as biochemical.

The target of experiment [7] is T4, wild-type (wt) DHFR from Plasmodium falciparum (Plasmodium falciparum, UniProt P13922, N108S/R59C).
T4 construct: The Dihydrofolate Reductase Domain of Plasmodium falciparum Thymidylate Synthase-Dihydrofolate Reductase; made in house
The experiment is described as follows: Inhibition of wild-type pfDHFR (spectrophotometric, Ki).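 Note: Affinity-purified enzyme, initial reaction rates measured across a range of inhibitor concentrations, Ki obtained by nonlinear least-squares fitting.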 It counts as biochemical. As to conditions: Ki(wt) nM.
Protocol: as §1

Structures are written as SMILES. Like-named read-outs stand apart in the source and are kept apart here.

T4 sequence (P13922 10-228 R59C/N108S): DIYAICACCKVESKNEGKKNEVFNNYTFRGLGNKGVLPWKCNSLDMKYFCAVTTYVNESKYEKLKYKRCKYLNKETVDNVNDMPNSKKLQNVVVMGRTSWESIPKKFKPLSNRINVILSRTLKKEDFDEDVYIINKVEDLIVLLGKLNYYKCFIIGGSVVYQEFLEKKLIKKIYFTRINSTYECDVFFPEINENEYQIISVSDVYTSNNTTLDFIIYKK
T2 sequence (A7UD81 1-231 A16V/S108T): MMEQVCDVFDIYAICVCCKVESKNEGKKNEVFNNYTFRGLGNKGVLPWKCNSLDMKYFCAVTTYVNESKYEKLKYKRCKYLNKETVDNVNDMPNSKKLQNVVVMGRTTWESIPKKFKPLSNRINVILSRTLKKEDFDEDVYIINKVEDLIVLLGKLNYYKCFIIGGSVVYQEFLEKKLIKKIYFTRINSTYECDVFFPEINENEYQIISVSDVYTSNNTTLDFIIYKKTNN
T3 sequence (Q27793 whole entry): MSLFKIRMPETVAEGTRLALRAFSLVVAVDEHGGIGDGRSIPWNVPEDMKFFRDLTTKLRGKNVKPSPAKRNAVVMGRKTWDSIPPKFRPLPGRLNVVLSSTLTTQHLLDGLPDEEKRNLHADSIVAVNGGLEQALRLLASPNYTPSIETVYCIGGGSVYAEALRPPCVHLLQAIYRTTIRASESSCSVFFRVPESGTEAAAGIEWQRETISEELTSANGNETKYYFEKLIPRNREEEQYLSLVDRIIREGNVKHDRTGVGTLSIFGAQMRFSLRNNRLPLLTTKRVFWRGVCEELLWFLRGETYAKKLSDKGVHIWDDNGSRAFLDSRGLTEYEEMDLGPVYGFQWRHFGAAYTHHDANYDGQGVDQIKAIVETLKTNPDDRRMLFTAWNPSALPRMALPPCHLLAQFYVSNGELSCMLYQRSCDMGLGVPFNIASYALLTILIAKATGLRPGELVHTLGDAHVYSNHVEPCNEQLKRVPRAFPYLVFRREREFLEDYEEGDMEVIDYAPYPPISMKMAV

As usually defined, the Ki is a dissociation constant, usually derived from enzyme kinetics or from competition with a known ligand. By IC50 is commonly meant the point on the concentration scale where inhibition reaches its midpoint. For the compound `CCCCOc1ccc(C2N=C(N)N=C(N)N2c2ccc(OCc3ccccc3)cc2)cc1` (stereo not shown) [1-p-benzyloxyphenyl-2-p-n-butoxyphenyl-4,6-diamino-1,2-dihydro-1,3,5-triazine], the “Ki (human)/Ki (P. falc. mut)” value on human DHFR [1] was determined as 31. The “Ki (human)/Ki (P. falc. wt)” value at human DHFR [1] is reported as 253. For the same compound, on human DHFR [1], the “Ki (human)/Ki (T. cruzi)” value was determined as 4.1. Besides, the Ki on human DHFR [2] (Human Ki (I50)(nM)) is 203 nM; in experiment [4], 6.6 ± 0.6 nM; in experiment [6], 49 nM; in experiment [7] it was 0.8 ± 0.1 nM. Moreover, the IC50 in experiment [3] was 384 nM. The “Ki(mut)/Ki(wt)” value in experiment [5] is 8.2. The same compound displayed a Selectivity in experiment [6] of 4.1.

For the compound `NC1=NC(c2cccc(O)c2)N(c2ccc(Cl)cc2)C(N)=N1` (stereo not shown) [(Ia) R2=m-hydroxyphenyl, 1-p-chlorophenyl-2-m-hydroxyphenyl-4,6-diamino-1,2-dihydro-1,3,5-triazine], on human DHFR [1], the “Ki (human)/Ki (P. falc. mut)” value came out at 13.7, the “Ki (human)/Ki (P. falc. wt)” value is 280 and the “Ki (human)/Ki (T. cruzi)” value came to 56. Besides, the inhibition constant (Ki) at human DHFR [2] (Human Ki (I50)(nM)) was determined as 1680 nM. Moreover, the IC50 in experiment [3] was found to be 48 nM. In experiment [4], this compound had a Ki of 123 ± 13 nM. The “Ki(mut)/Ki(wt)” value in experiment [5] is 20.6. Further, the Ki in experiment [7] is 6 ± 0.4 nM.

In the case of `CCOc1ccc(C2N=C(N)N=C(N)N2c2ccc(Cl)cc2)cc1` (stereo not shown) [(Ia) R2=p-ethoxyphenyl, 1-p-chlorophenyl-2-p-ethoxyphenyl-4-6-diamino-1,2-dihydro-1,3,5-triazine], at human DHFR [1], the “Ki (human)/Ki (P. falc. mut)” value amounted to 48, the “Ki (human)/Ki (P. falc. wt)” value was 1153 and the “Ki (human)/Ki (T. cruzi)” value is listed as 24.7. At human DHFR [2] (Human Ki (I50)(nM)), this compound showed a Ki of 1730 nM. The IC50 in experiment [3] is 181 nM. The same compound displayed a Ki in experiment [4] of 36 ± 6 nM. In experiment [5], the “Ki(mut)/Ki(wt)” value is listed as 24.3. Besides, in experiment [6], the Ki is 70 nM and the Selectivity was found to be 25. Moreover, the inhibitory constant (Ki) in experiment [7] came out at 1.5 ± 0.2 nM.

As for `NC1=NC(c2ccc(F)cc2)N(c2ccc(Cl)cc2)C(N)=N1` (stereo not shown) [(Ia) R2=p-fluorophenyl], the “Ki (human)/Ki (P. falc. mut)” value on human DHFR [1] came out at 81. Besides, at human DHFR [1], the “Ki (human)/Ki (P. falc. wt)” value is given as 1227. Moreover, the “Ki (human)/Ki (T. cruzi)” value on human DHFR [1] amounted to 10.4. Moreover, the Ki is 10600 nM on human DHFR [2] (Human Ki (I50)(nM)), 130 ± 17 nM in experiment [4], 1010 nM in experiment [6] and 8.6 ± 1.4 nM in experiment [7]. The same compound returned an IC50 in experiment [3] of 359 nM. For the same compound, in experiment [5], the “Ki(mut)/Ki(wt)” value turned out to be 15.1. For the same compound, in experiment [6], the Selectivity was found to be 10.

In the case of `NC1=NC(c2ccc(O)cc2)N(c2cccc(Cl)c2)C(N)=N1` (stereo not shown) [(Ib) R2=4-hydroxyphenyl], at human DHFR [1], the “Ki (human)/Ki (P. falc. mut)” value was determined as 0.97, the “Ki (human)/Ki (P. falc. wt)” value is listed as 0.95 and the “Ki (human)/Ki (T. cruzi)” value stood at 1.17. In addition, affinity at human DHFR [2] (Human Ki (I50)(nM)) was put at a Ki of 56 nM. In addition, the IC50 in experiment [3] came to 3070 nM. The same compound showed a Ki in experiment [4] of 57.7 ± 7.5 nM. In experiment [5], the “Ki(mut)/Ki(wt)” value worked out at 1.0. The affinity in experiment [7] corresponds to a Ki of 59.1 ± 1 nM.

As to `NC1=NC(c2cccc(OCc3ccccc3)c2)N(c2cccc(Cc3ccccc3)c2)C(N)=N1` (stereo not shown) [R2=3-BnOC6H4, X=H, Y=Bn, 1-m-benzylphenyl-2-m-benzyloxyphenyl-4,6-diamino-1,2-dihydro-1,3,5-triazine], the “Ki (human)/Ki (P. falc. mut)” value on human DHFR [1] came to 39. Further, the “Ki (human)/Ki (P. falc. wt)” value on human DHFR [1] is 127. For the same compound, the “Ki (human)/Ki (T. cruzi)” value on human DHFR [1] amounted to 9.1. Moreover, the Ki on human DHFR [2] (Human Ki (I50)(nM)) was 292 nM; in experiment [4] it was 7.4 ± 0.9 nM; in experiment [6], 32 nM; in experiment [7], 2.3 ± 0.3 nM. Further, in experiment [5], the “Ki(mut)/Ki(wt)” value is recorded as 3.2. For the same compound, in experiment [6], the Selectivity is given as 9.1.

On to `Cl.NC1=NCN(c2ccccc2)C(N)=N1` [R=H, X=H, 1-(phenyl)-4,6-diamino-1,2-dihydro-1,3,5-triazine hydrochloride], for which the “Ki (human)/Ki (P. falc. mut)” value at human DHFR [1] came to 2.44. At human DHFR [1], the “Ki (human)/Ki (P. falc. wt)” value was found to be 4.35. Further, the values for the Ki (at human DHFR [2] (read-out: Human Ki (I50)); in experiment [4]; in experiment [7]) were 1430 nM, 585 ± 70 nM and 329 ± 27 nM, respectively. Further, in experiment [5], the “Ki(mut)/Ki(wt)” value stood at 1.8.

The values are drawn from patent publication US20030203908A1, “Dihydrofolate reductase inhibitors” (priority 2000, published 2003).
